Reference: patent US20220249534A1, “METHOD OF TREATING CANCER WITH NUCLEOTIDE THERAPEUTICS” (Massachusetts Institute of Technology, priority 2021, published 2022)
Where two headings read alike, the source gives them in different places.

Experiments:
[1] = system: A549 cells; experiment: Proliferation rate of A549 cells with added single nucleoside/base; format: cell-based, human; conditions: for IC50: Homo sapiens
Protocol: (§1) This effect was dose-titratable over a 0.1 mM to 2.0 mM range, with increasing concentrations of multiple single nucleotides completely preventing cell proliferation.
(§2) In Table 1, the approximate concentration of each nucleotide that when added slows the proliferation of the indicated cells by half is shown.
(§3) All adherent and human leukemia cell lines were cultured in DMEM or RPMI supplemented with 10% heat inactivated fetal bovine serum at 37° C. with 5% CO2. The Lys-GFP-ER-HoxA9 63.3 cells were cultured in RPMI supplemented with 10% fetal bovine serum, stem cell factor, and beta-estradiol as described previously (Sykes et al., (2016), Cell. 167(1): 171-186.e15). All cell lines regularly tested negative for mycoplasma.
(§4) To assess proliferation, the number of cells seeded for each cell line allowed for exponential growth over the course of the assay. To assess effects of nucleotide treatment, cells were washed three times with PBS and 4 mL of treatment media was added one day after plating cells. The following formula was used to calculate proliferation rate:
(§5) Doublings per day=[Log2(Final day 4 cell count/Initial day 0 cell count)]/4 days

[2] = system: 143B cells; experiment: Proliferation rate of 143B cells with added single nucleoside/base; format: cell-based; conditions: Homo sapiens, read-out: Added nucleoside/base concentration that slows proliferation by half
Protocol: as §1, §2, §3, §4, §5

[3] = system: H1299 cells; experiment: Proliferation rate of H1299 cells with added single nucleoside/base; format: cell-based; conditions: Homo sapiens
Protocol: as §1, §2, §3, §4, §5

[4] = system: A2780 cells; experiment: Proliferation rate of A2780 cells with added single nucleoside/base; format: cell-based; conditions: Homo sapiens
Protocol: as §1, §2, §3, §4, §5

[5] = system: U2OS cells; experiment: Proliferation rate of U2OS cells with added single nucleoside/base; format: cell-based; conditions: Homo sapiens, read-out: Added nucleoside/base concentration that slows proliferation by half
Protocol: as §1, §2, §3, §4, §5

[6] = system: MDA-MB-468 cells; experiment: Proliferation rate of MDA-MB-468 cells with added single nucleoside/base; format: cell-based; conditions: Homo sapiens
Protocol: as §1, §2, §3, §4, §5

[7] = system: A549 cells; experiment: LCMS analysis of intracellular nucleotide levels in A549 cells; format: cell-based, human
Protocol: Where indicated, cells were incubated in media with 4 mM ^15N-amide-glutamine and/or 200 μM ^13C-guanine or ^13C-adenine for 24 hours prior to LCMS Analysis of metabolites. For assessment of metabolites, cells were washed three times with PBS prior to extracting polar metabolites from cells: plates were placed on ice, cells were washed with ice-cold blood bank saline, and 500 μl of ice-cold 80% methanol in water with 250 nM ^13C/^15N labeled amino acid standards (MSK-A2-1.2: Cambridge Isotope Laboratories, Inc.) was added to each well. Cells were scraped, each sample was vortexed for 10 minutes at 4° C., and then centrifuged at maximum speed for 10 minutes at 4° C. Samples were dried under nitrogen gas and resuspended in 25 μl of a 50/50 acetonitrile/water mixture. Metabolites were measured using a Dionex UltiMate 3000 ultra-high performance liquid chromatography system connected to a Q Exactive benchtop Orbitrap mass spectrometer, equipped with an Ion Max source and a HESI II probe (Thermo Fisher Scientific). […]
Metabolites were monitored in full-scan, polarity-switching, mode. […] Relative quantitation of metabolites was performed with XCalibur QuanBrowser 2.2 (Thermo Fisher Scientific) using a 5 ppm mass tolerance and referencing an in-house retention time library of chemical standards. […]

[8] = system: Chk1 and Chk2; experiment: Replication stress signaling: phosphorylation of ATR/ATM targets Chk1 and Chk2; format: cell-based; conditions: stronger signaling at higher concentrations
From the text: To determine if nucleotide imbalance causes replication stress in a cancer cell, targets of the ATR and ATM kinases were examined after the addition of a nucleotide to change the internal nucleotide ratio. The ATR and ATM kinases are components of the cellular response to DNA damage, and sense single-stranded DNA and DNA double-strand breaks, respectively. The respective targets of ATR and ATM, Chk1 and Chk2, are major effectors of the DNA damage response. […] The appearance of p-Chk1 occurred first between 12 hours and 24 hours of guanine treatment, followed by the appearance of p-Chk2 between 48 hours and 72 hours. Induction of the replication stress response was reversed by addition of adenine together with guanine. A similar induction of ATR and ATM signaling occurred with any excess nucleotide supplementation that impaired S phase progression, but not with leucine deprivation, consistent with impaired DNA replication. Inhibiting total purine or pyrimidine synthesis induced phosphorylation of Chk1 and Chk2 but to a lesser extent than Guanosine treatment.

[9] = Comet tail assay of DNA damage; format: cell-based; conditions: 24 hours; small fraction of treated cells
From the text: The cancer cell is contacted with that amount of purine, purine precursor, purine analog, pyrimidine, pyrimidine precursor, and/or pyrimidine which, once entering the cell, changes the cell's internal baseline purine:pyrimidine ratio and induces replication stress in the cell. The induction of replication stress can be measured, in any way known in the art, e.g., with the Comet assay which measures DNA damage. In this assay, cells are mixed in low melting point agarose on a microscope slide and are lysed with a detergent, e.g., 1% N-lauryl sarcosine, 0.5% Triton X-100, DMSO, and high salt, e.g., 2.5 M NaCl, 0.1 M EDTA and 10 mM Tris, to form nucleoids containing supercoiled loops of DNA that are linked to the nuclear matrix. After electrophoresis at high pH structures can be observed resembling comets, visualized by fluorescence microscopy. The intensity of the comet tail relative to the head is proportional to the number of breaks in the DNA. Comets can be scored with dedicated software such as, but not limited to, CaspLab software or OpenComet software.

[10] = system: 63.3 cells; experiment: Differentiation of Lys-GFP-ER-HoxA9 63.3 cells by flow cytometry; format: cell-based; conditions: 10^-3 to 10^-7 M, FIG. 4A
Protocol: (§6) That exogenous nucleotides can direct cancer cells to undergo differentiation was determined as follows. Thymidine was added at concentrations ranging from 10^−3 to 10^−7 M to 63.3 cells (FIG. 4A), THP1 cells (FIG. 4B) and U937 cells (FIG. 4C). Cell differentiation was monitored by CD11b+/CD16+ expression, and by CD11b+ total expression.
as §3
(§7) The Lys-GFP-ER-HoxA9 cells or human leukemia cell lines were grown in round-bottom tissue-culture treated plates. Following a 4-day incubation with nucleotides, cells were incubated with antibodies, washed, incubated with FACS buffer containing DAPI, and analyzed by flow cytometry. Viability was assessed by forward and side scatter as well as by DAPI exclusion. For the Lys-GFP-ER-HoxA9 63.3 cells, differentiation was assessed by GFP and staining with an anti-CD11b-APC antibody (final concentration of 1:400; Clone M1/70, Biolegend). […]

[11] = system: THP1 cells; experiment: Differentiation of THP1 cells by flow cytometry; format: cell-based, human; conditions: 10^-3 to 10^-7 M, FIG. 4B
Protocol: as §6, §3, §7

[12] = system: U937 cells; experiment: Differentiation of U937 cells by flow cytometry; format: cell-based, human; conditions: 10^-3 to 10^-7 M, FIG. 4C
Protocol: as §6, §3, §7

[13] = A549 cells, approximate concentration, read-out: Added nucleoside/base concentration that slows proliferation by half
[14] = 143B cells, approximate concentration
[15] = NCI-H1299, H1299 cells, approximate concentration, read-out: Added nucleoside/base concentration that slows proliferation by half
[16] = A2780 cells, approximate concentration, read-out: Added nucleoside/base concentration that slows proliferation by half
[17] = U2OS cells, approximate concentration
[18] = MDA-MB-468 cells, approximate concentration, read-out: Added nucleoside/base concentration that slows proliferation by half

Structure (SMILES)	IC50 [1, 13]	IC50 [3, 15]	IC50 [4, 16]	IC50 [5, 17]	IC50 [6, 18]	IC50 [2, 14]	further results
Nc1ncnc2c1ncn2[C@@H]1O[C@H](CO)[C@@H](O)[C@H]1O [A, adenosine]	2100 µM	1100 µM	1000 µM	950 µM	800 µM	1000 µM	
Nc1ccn([C@H]2C[C@H](O)[C@@H](CO)O2)c(=O)n1 [Deoxycytidine]							Effect on proliferation ([1]; A549 cells, FIG. 1B, higher concentrations): blocked proliferation
Nc1nc2nc[nH]c2c(=O)[nH]1 [G, guanine]							IC50 ([1]; A549, read-out: Added nucleoside/base concentration that slows proliferation by half): 80 µM; IC50 ([2]; 143B): 120 µM; IC50 ([3]; NCI-H1299, read-out: Added nucleoside/base concentration that slows proliferation by half): 200 µM; IC50 ([4]; A2780, read-out: Added nucleoside/base concentration that slows proliferation by half): 100 µM; IC50 ([5]; U2OS): 250 µM; IC50 ([6]; MDA-MB-468, read-out: Added nucleoside/base concentration that slows proliferation by half): 150 µM; Intracellular pools of guanylate nucleotides (GTP/GDP/GMP) ([7]; FIGS. 2A and 3A-3B): dramatically increased; Intracellular levels of adenylate nucleotides (ATP/ADP/AMP) ([7]; FIGS. 2B and 3C-3D): decreased; Phosphorylation of Chk1 and Chk2 (replication stress response) [8]: robust phosphorylation; DNA damage by comet tail assay [9]: minor increases in DNA damage

Now from value to compound, other results behind:

IC50 [1, 13]	IC50 [3, 15]	IC50 [4, 16]	IC50 [5, 17]	IC50 [6, 18]	Structure (SMILES)	IC50 [2, 14]	further results
500 µM	700 µM	300 µM	500 µM	150 µM	Cc1cn([C@H]2C[C@H](O)[C@@H](CO)O2)c(=O)[nH]c1=O [T, thymidine]		Cell differentiation (CD11b+ markers) [10]: induced cell differentiation in a concentration dependent manner; Cell differentiation (CD11b+/CD16+ and CD11b+ total expression) [11]: induced cell differentiation in a concentration dependent manner; Cell differentiation (CD11b+/CD16+ and CD11b+ total expression) [12]: induced cell differentiation in a concentration dependent manner
1200 µM	800 µM	300 µM	600 µM	225 µM	Nc1ncnc2c1ncn2[C@H]1C[C@H](O)[C@@H](CO)O1 [dA, deoxyadenosine]	600 µM	
